Structures are written as SMILES.

One may read the EC50 as the midpoint of the concentration-response curve.

The subject of the test is HBV viral load (viral production from HepAD38 cells). As to the kind of experiment: Activity of test compounds on viral production from HepAD38 cells (viral load by qPCR of HBV core sequence). The class given is cell-based. The settings on record: Hepatitis B virus, HePAD38, 120 h, viral load lowering, 5 days, qPCR of supernatant, read-out: VL HepAD38 EC50 range. Here is the method: Assay Measuring Activity of Test Compounds on Viral Production from HepAD38 Cells
HepAD38 cells grown in a T-150 flask (Corning, cat #: 430825) with Growth Medium (DMEM/F12 (1:1) (Hyclone, cat #: SH30023.02), 1× Pen/Strep (Invitrogen, cat #: 15140-122), 10% FBS (Tissue Culture Biologics, cat #: 101), 250 μg/mL G418 (Alfa Aesar, cat #: J62671), 1 μg/mL Tetracycline (Teknova, cat #: T3320)) were detached with 0.25% trypsin-EDTA (Invitrogen, cat #: 25200-056). Tetracycline-free treatment medium (15 mL DMEM/F12 (1:1) 1× Pen/step, with 2% FBS, Tet-system approved (Clontech, cat #: 631106) were then added to mix, transferred into a 50 ml conical tube (Falcon, cat #: 21008-918) and spun at 1300 rpm for 5 min. Pelleted cells were then re-suspended/washed with 50 mL of 1×DPBS (Invitrogen, cat #: 14190-136) 2 times and 50 mL treatment medium twice. HepAD38 cells were then re-suspended with 10 mL of treatment medium, syringed and counted. Wells of 96-well clear bottom TC plate (Corning, cat #: 3904) were seeded at 50,000 cells/well in 180 μL of treatment medium, and 20 μL of either 10% DMSO (Sigma, cat #: D4540) as controls or a 10× solution of test compounds in 10% DMSO in treatment media was added for a final compound concentration starting at 10 μM, and plates were incubated in 5% CO2 incubator at 37° C. for 5 days.
Subsequently viral load production was assayed by quantitative PCR (qPCR) of the HBV core sequence. PCR reaction mixture containing forward primers HBV-f 5′-CTGTGCCTTGGGTGGCITT-3′ (IDT DNA), Reverse primers HBV-r 5′-[…]-3′ (IDT DNA), Fluorescent TaqMan™ Probes HBV-probe 5′-FAM/AGCTCCAAA/ZENMITCTITATAAGGGTCGATGTC/3IABkFQ-3′ (IDT DNA), 10 μL/well of PerfeCTa® qPCR ToughMix® (Quanta Biosciences, Cat #: 95114-05K), and 6 μL/well of DEPC water (Alfa Aesar, cat #: J62087) was prepared. Four μL of supernatant was added to 16 μL of the reaction mixture in a qPCR plate (Applied Biosytems, Cat #: 4309849), sealed with a film (Applied Biosystems, Cat #: 4311971), centrifuged for a few seconds, and subsequently run on an Applied Biosystems VIIA7. The PCR mixture was incubated at 45° C. for 5 min, then 95° C. for 10 min, followed by 40 cycles of 10 seconds at 95° C. and 20 seconds at 60° C. Viral load was quantified against known HBV DNA standards by using ViiA™ 7 Software. Viral load in the supernatant from wells with treated cells were compared against viral load in supernatant from DMSO control wells (3 per plate). Cell viability assay was performed with CellTiter-Glo Luminescent Cell Viability Assay (Promega, cat #: G7573) with modification. Mixed appropriate amount of CellTiter-Glo (CTG) 1×DPBS in a 1:1 ratio, added 100 uL of the mixture to each well followed completely removal of all supernatant in each well without touching cell surface. Incubated the plate at room temperature for 10 min on an orbital shaker, and then read the plate with a plate reader (TECAN M1000 or Envision). EC50 or CC50 values were calculated through curve-fitting of the four-parameter nonlinear-logistic-regression model (GraphPad Prism or Dotmatics). CC50 values were all >10 μM.
In general terms: Real-time PCR tracks product formation cycle by cycle.

Turning to `O=C(Nc1ccc(F)c(Cl)c1)c1c(C2CC3CC(O)(C(F)(F)F)CC3C2)nc2n1CCC2` (single isomer, unassigned) [Example 34, N-(3-Chloro-4-fluorophenyl)-2-(5-hydroxy-5-(trifluoromethyl)octahydropentalen-2-yl)-6,7-dihydro-5H-pyrrolo[1,2-a]imidazole-3-carboxamide], the EC50 fell in the range of 10 to 50 nM.

For the molecule `Cn1cnc(C2CC3CC(O)(c4cnn(C)c4C(F)(F)F)CC3C2)c1C(=O)Nc1ccc(F)c(Cl)c1` (stereo not shown) [Example 141, N-(3-Chloro-4-fluorophenyl)-4-(5-hydroxy-5-(1-methyl-5-(trifluoromethyl)-1H-pyrazol-4-yl)octahydropentalen-2-yl)-1-methyl-1H-imidazole-5-carboxamide], the EC50 was less than 10 nM.

For `CC(C)n1cc(C2(O)CC3CC(c4ncn(C)c4C(=O)Nc4ccc(F)c(Cl)c4)CC3C2)c(C(F)(F)F)n1` (stereo not shown) [Example 157, N-(3-Chloro-4-fluorophenyl)-4-(5-hydroxy-5-(1-isopropyl-3-(trifluoromethyl)-1H-pyrazol-4-yl)octahydropentalen-2-yl)-1-methyl-1H-imidazole-5-carboxamide], the EC50 was less than 10 nM.

For the molecule `Cn1cnc(C2CC3CC(O)(c4n[nH]cc4C(F)F)CC3C2)c1C(=O)Nc1ccc(F)c(Cl)c1` (stereo not shown) [Example 169, N-(3-Chloro-4-fluorophenyl)-4-(5-(4-(difluoromethyl)-1H-pyrazol-3-yl)-5-hydroxyoctahydropentalen-2-yl)-1-methyl-1H-imidazole-5-carboxamide], the EC50 was less than 10 nM.

On to `Cn1cnc(C2CC3CC(O)(c4c[nH]nc4C(F)(F)F)CC3C2)c1C(=O)Nc1ccc(F)c(Cl)c1` (stereo not shown) [Example 150, N-(3-Chloro-4-fluorophenyl)-4-(5-hydroxy-5-(3-(trifluoromethyl)-1H-pyrazol-4-yl)octahydropentalen-2-yl)-1-methyl-1H-imidazole-5-carboxamide], for which the EC50 was less than 10 nM.

In the case of `Cn1cnc(C2CC3CC(O)(c4[nH]nc(C(F)(F)F)c4Br)CC3C2)c1C(=O)Nc1ccc(F)c(C#N)c1` (stereo not shown) [Example 195, 4-(5-(4-Bromo-3-(trifluoromethyl)-1H-pyrazol-5-yl)-5-hydroxyoctahydropentalen-2-yl)-N-(3-cyano-4-fluorophenyl)-1-methyl-1H-imidazole-5-carboxamide], the EC50 is less than 10 nM.

In the case of `Cn1cnc(C2CC3CC(O)(c4c[nH]nc4C(F)F)CC3C2)c1C(=O)Nc1ccc(F)c(Cl)c1` (stereo not shown) [Example 170, N-(3-Chloro-4-fluorophenyl)-4-(5-(3-(difluoromethyl)-1H-pyrazol-4-yl)-5-hydroxyoctahydropentalen-2-yl)-1-methyl-1H-imidazole-5-carboxamide], the EC50 is less than 10 nM.

In the case of `Cn1cc(C2(O)CC3CC(c4ncn(C)c4C(=O)Nc4ccc(F)c(Cl)c4)CC3C2)c(C(O)C(F)(F)F)n1` (stereo not shown) [Example 191, N-(3-Chloro-4-fluorophenyl)-4-(5-hydroxy-5-(1-methyl-3-(2,2,2-trifluoro-1-hydroxyethyl)-1H-pyrazol-4-yl)octahydropentalen-2-yl)-1-methyl-1H-imidazole-5-carboxamide], the EC50 lay within 50 to 500 nM.

Turning to `Cn1cnc(C2CC3CC(O)(c4nn(C)c(C(F)(F)F)c4Br)CC3C2)c1C(=O)Nc1ccc(F)c(Cl)c1` (stereo not shown) [Example 142, 4-(5-(4-Bromo-1-methyl-5-(trifluoromethyl)-1H-pyrazol-3-yl)-5-hydroxyoctahydropentalen-2-yl)-N-(3-chloro-4-fluorophenyl)-1-methyl-1H-imidazole-5-carboxamide], the EC50 is less than 10 nM.

For the molecule `Cn1cc(Cl)c(C2(O)CC3CC(c4ncn(C)c4C(=O)Nc4ccc(F)c(Cl)c4)CC3C2)n1` (stereo not shown) [Example 139, 4-(5-(4-Chloro-1-methyl-1H-pyrazol-3-yl)-5-hydroxyoctahydropentalen-2-yl)-N-(3-chloro-4-fluorophenyl)-1-methyl-1H-imidazole-5-carboxamide], the EC50 is less than 10 nM.

For `Cn1cnc(C2CC3CC(O)(c4c(Cl)cnn4C)CC3C2)c1C(=O)Nc1ccc(F)c(Cl)c1` (stereo not shown) [Example 122, 4-(5-(4-chloro-1-methyl-1H-pyrazol-5-yl)-5-hydroxyoctahydro-pentalen-2-yl)-N-(3-chloro-4-fluorophenyl)-1-methyl-1H-imidazole-5-carboxamide], the EC50 is less than 10 nM.

In the case of `CC(CO)Oc1cc(C2(O)CC3CC(c4ncn(C)c4C(=O)Nc4ccc(F)c(Cl)c4)CC3C2)n(C)n1` (stereo not shown) [Example 202, N-(3-Chloro-4-fluorophenyl)-4-(5-hydroxy-5-(3-((1-hydroxypropan-2-yl)oxy)-1-methyl-1H-pyrazol-5-yl)octahydropentalen-2-yl)-1-methyl-1H-imidazole-5-carboxamide], the EC50 was less than 10 nM.

For the molecule `Cn1cnc(C2CC3CC(O)(c4c(Br)c(C#N)nn4C)CC3C2)c1C(=O)Nc1ccc(F)c(Cl)c1` (stereo not shown) [Example 181, 4-(5-(4-Bromo-3-cyano-1-methyl-1H-pyrazol-5-yl)-5-hydroxyoctahydropentalen-2-yl)-N-(3-chloro-4-fluorophenyl)-1-methyl-1H-imidazole-5-carboxamide], the EC50 is less than 10 nM.

As for `Cn1cnc(C2CC3CC(O)(c4c(Cl)c(N)nn4C)CC3C2)c1C(=O)Nc1ccc(F)c(Cl)c1` (stereo not shown) [Example 98, 4-(5-(3-amino-4-chloro-1-methyl-1H-pyrazol-5-yl)-5-hydroxyoctahydropentalen-2-yl)-N-(3-chloro-4-fluorophenyl)-1-methyl-1H-imidazole-5-carboxamide], the EC50 is less than 10 nM.

On to `CC(C)n1nc(N)cc1C1(O)CC2CC(c3ncn(C)c3C(=O)Nc3ccc(F)c(Cl)c3)CC2C1` (stereo not shown) [Example 77, 4-(5-(3-Amino-1-Isopropyl-1H-pyrazol-5-yl)-5-hydroxyoctahydropentalen-2-yl)-N-(3-chloro-4-fluorophenyl)-1-methyl-1H-imidazole-5-carboxamide], for which the EC50 is less than 10 nM.

With `Cn1cnc(C2CC3CC(O)(c4cc(OCC(O)CO)nn4C)CC3C2)c1C(=O)Nc1ccc(F)c(Cl)c1` (single isomer, unassigned) [Example 205, N-(3-Chloro-4-fluorophenyl)-4-(5-(3-(2,3-dihydroxypropoxy)-1-methyl-1H-pyrazol-5-yl)-5-hydroxyoctahydropentalen-2-yl)-1-methyl-1H-imidazole-5-carboxamide], the EC50 was less than 10 nM.

In the case of `Cn1c(Cl)nc(C2CC3CC(=O)CC3C2)c1C(=O)Nc1ccc(F)c(Cl)c1` (stereo not shown) [Example 21, 2-Chloro-N-(3-chloro-4-fluorophenyl)-1-methyl-4-(5-oxooctahydropentalen-2-yl)-1H-imidazole-5-carboxamide], the EC50 is less than 10 nM.

Consider `Cc1cc(C2(O)CC3CC(c4ncn(C)c4C(=O)Nc4ccc(F)c(Cl)c4)CC3C2)n(C)n1` (single isomer, unassigned) [Example 71, N-(3-Chloro-4-fluorophenyl)-4-(5-(1,3-dimethyl-1H-pyrazol-5-yl)-5-hydroxyoctahydropentalen-2-yl)-1-methyl-1H-imidazole-5-carboxamide], for which the EC50 is less than 10 nM.

As to `Cc1nc(C2CC3CC(=O)CC3C2)c(C(=O)Nc2ccc(F)c(Cl)c2)n1C` (stereo not shown) [Example 23, N-(3-Chloro-4-fluorophenyl)-1,2-dimethyl-4-(5-oxooctahydropentalen-2-yl)-1H-imidazole-5-carboxamide], the EC50 was less than 10 nM.

The values above are taken from US12655130B2 (ASSEMBLY BIOSCIENCES, INC., priority 2020, dated 2026).
